{"source": "paper PMC10030409", "about": "(Investigational New Drugs, 2023)", "details": "in vivo", "experimental": "Polymorphisms in EGFR, ABCG2, ABCB1, and POR (Online Resource, Appendix A) were analyzed using TaqMan® probe-based assays (Applied Biosystems, Foster City, CA, USA), whereas the ABCG2 polymorphism (rs2231137) was studied using the CycleavePCR® assay (TaKaRa Bio Inc., Kusatsu, Japan). The detailed genotyping method is provided in the Online Resource (Appendix A).\nGermline polymorphism and the worst grade of AE occurring in each patient were analyzed for pharmacogenomics–toxicity relationship analysis.\nThe cut-off date for data collection was April 4, 2022. Continuous variables such as AUC0–24 and laboratory data are presented as median (interquartile range, IQR); estimates of PopPK parameters are presented as mean (standard error, SE). […] Receiver operating characteristic (ROC) curve analysis was used to evaluate the discrimination potential of AUC0–24 for grade ≥ 2 AEs. […] All p-values were two-sided, and statistical significance was set at p < 0.05.\nThe EGFR polymorphisms (rs2293348, rs4947492, rs11977388, rs2227983, and rs884225), ABCG2 (rs2231142 and rs2622604), ABCB1 (rs1128503, rs1045642, and rs2032582), and POR (rs17685 and rs1057868) were analyzed using Taqman® probe-based assays (Applied Biosystems, CA, USA). The probes (FAM/VIC-fluorescent) and primers for these polymorphisms were purchased from Applied Biosystems (TaqMan® SNP Genotyping Assay ID: C _ 144945_20, C _ 27876021_10, C _ 321871_10, C _ 16170352_20, and C _ 9501579_10 for EGFR polymorphisms; C _ 15854163_70 and C _ 9510352_10 for ABCG2 polymorphisms; C _ 7586662_10, C _ 7586657_20, C_11711720D_40, and C_11711720C_30 for ABCB1 polymorphisms; and C _ 8890133_30 and C _ 8890131_30 for POR polymorphisms). The real-time PCR reaction mix included 4.5 ng of DNA template diluted in 4.5 µL DNase‑Free distilled water, 5 µL TaqMan® Universal Master Mix II with UNG (Uracil-N-Glycosylase), and 0.5 µL TaqMan® SNP Genotyping Assay mix, including the primers and probes, in a total volume of 10 µL. The reactions were performed under the following conditions: UNG incubation at 50 °C for 2 min and polymerase activation at 95 °C for 10 min, followed by 50 cycles of 95 °C for 15 s and 60 °C for 60 s.\nABCG2 polymorphism (rs2231137) was studied using the CycleavePCR® assay (TaKaRa Bio Inc., Kusatsu, Shiga, Japan). The primers and probes for ABCG2 rs2231137 were designed using the CycleavePCR Assay Designer (SNPs, TaKaRa Bio Inc.): forward 5′- […]-3′; reverse 5′-[…]-3′; FAM-labeled probe 5′-(Eclipse)[…][G]TG(FAM)-3′; and HEX-labeled probe 5′-(Eclipse)TATCCCA[A]TGT(HEX)-3′. The real-time PCR reaction mix per reaction included 4 ng of DNA template diluted in 10.5 μL DNase‑Free distilled water, 12.5 μL CycleavePCR Reaction Mix, 0.5 μL each of forward and reverse primers, and 1 μL each of FAM/HEX-labeled probes in a total volume of 26 μL. The reactions were performed under the following conditions: initial denaturation at 95 °C for 10 s, followed by 50 cycles at 95 °C for 5 s, 55 °C for 10 s, and 72 °C for 20 s.\nAfter real-time PCR, the result of the allelic discrimination was plotted by reading the generated fluorescence using CFX Manager Software version 3.1 (Bio-Rad Laboratories). For quality control, all the polymorphisms were genotyped more than twice.", "data": [{"compound": "C=CC(=O)Nc1cc(Nc2nccc(-c3cn(C)c4ccccc34)n2)c(OC)cc1N(C)CCN(C)C", "note": "[osimertinib]", "values": [{"measurement": "Any grade ≥ 2 AEs in patients with ABCG2 rs2231137 G/A or A/A genotypes", "result": "higher frequency"}, {"measurement": "Association of ABCB1 rs1128503 C > T (C/T and T/T genotypes) with any grade ≥ 2 AEs", "result": "significant association"}, {"measurement": "Association of ABCB1 rs2032582 G > T/A (A/T and G/T genotypes) with any grade ≥ 2 skin disorders", "result": "associated"}, {"measurement": "Association of ABCB1 rs2032582 G > T/A (A/T and G/T genotypes) with grade ≥ 2 lymphocyte count decrease", "result": "associated"}, {"measurement": "Association of EGFR rs2293348 C > T (C/T genotype) with any severe AEs", "result": "associated with any severe AEs"}, {"measurement": "Association of EGFR rs2293348 C > T (C/T genotype) with grade ≥ 1 or ≥ 2 anorexia", "result": "significantly associated"}, {"measurement": "Association of EGFR rs4947492 G > A (A/A genotype) with any severe AEs", "result": "associated with any severe AEs"}, {"measurement": "Association of polymorphisms in POR with any AEs or PK", "result": "not significantly associated"}]}]}
